# “And” between values parts separate entries of the source, which are not always exact repeats. Equal values may be shown once.
# Molecular target: T1, DrOTOP1 L385W (Danio rerio, UniProt Q7ZWK8, L385W)
# T1 construct: A previously generated codon-optimized full-length DrOTOP1[8]; (UniProt: Q7ZWK8) construct; expressed in transfected cells; host or cells: HEK-293 (CRL-1573, ATCC)
# T1 sequence (Q7ZWK8 1-586 L385W): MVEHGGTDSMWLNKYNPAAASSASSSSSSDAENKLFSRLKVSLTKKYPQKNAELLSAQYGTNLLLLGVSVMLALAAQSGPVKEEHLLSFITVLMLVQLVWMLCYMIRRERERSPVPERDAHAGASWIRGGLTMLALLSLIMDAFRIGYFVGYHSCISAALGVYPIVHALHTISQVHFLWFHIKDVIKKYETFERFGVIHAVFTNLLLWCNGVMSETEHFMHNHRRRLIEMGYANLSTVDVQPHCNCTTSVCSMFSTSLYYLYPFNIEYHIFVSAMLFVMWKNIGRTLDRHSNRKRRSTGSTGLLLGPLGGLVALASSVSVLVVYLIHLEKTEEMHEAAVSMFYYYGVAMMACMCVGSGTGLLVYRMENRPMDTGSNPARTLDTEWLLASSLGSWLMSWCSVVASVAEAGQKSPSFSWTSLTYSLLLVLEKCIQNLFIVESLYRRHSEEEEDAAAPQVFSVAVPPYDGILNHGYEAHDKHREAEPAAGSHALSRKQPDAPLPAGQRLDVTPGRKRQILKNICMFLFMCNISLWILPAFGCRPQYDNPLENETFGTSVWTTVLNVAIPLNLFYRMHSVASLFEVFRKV
# Assay: Whole-cell patch-clamp, inhibition of acid-evoked currents, DrOTOP1 L385W
# Type: cell-based, zebrafish (Danio rerio)
# Settings: single cells or mean; for Inhibition of currents: 10 µM
# Excerpt: To functionally test the significance of the two binding sites identified by cryo-EM, we generated point mutations of DrOTOP1 using the binding poses and conformational changes observed in DrOTOP1_C2.2 to guide our mutations. As per the binding pose that best fits our cryo-EM density, C2.2 forms the following interactions in the outer site: hydrophobic packing against many non-polar residues W126, G130, M133, L134, F271, F570, and M573, and π-stacking with W532 (Fig. 5A). In addition, C2.2 could potentially form H-bonds with E267, if the sidechain is protonated or a water bridge is present, and with H574 if it moves closer (Fig. 5A). Likewise, C2.36 presents a heterocyclic nitrogen that can potentially form a H-bond with E267, similarly, provided a protonation or water bridge is present (Fig. 5B). In addition, C2.36 forms a T-shaped π-stacking interaction with H574, whose sidechain has rotated 90 degrees (compared to DrOTOP1_apo), presumably to accommodate the interaction (Fig. 5B). Considering other inhibitors discovered from the second round of screening, many contain functional groups like the carbonyl groups of Group 1 molecules and the heterocyclic nitrogen atoms of Group 2 molecules (Supplementary Fig. 3E), that can potentially form similar H-bonds with E267 as C2.2 and C2.36, assuming the binding modes are similar. In the central site, C2.2 binds with the following interactions: hydrophobic packing with residues V201, F271, A274, V278, and A388, π-stacking with F277, and H-bonding with E384 (Fig. 5C).
# We next tested mutations of the central site (L205W, A274W, F277A, E384A L385W, A388W). V201W and S389W, two additional central site mutations, were excluded from the study due to complete loss of channel activity. […]
# Whole-cell patch-clamp recording was performed as previously described[6],[22],[25]. Recordings were made with an Axopatch 200B amplifier, digitized with a Digidata 1322a 16-bit data acquisition system, acquired with pClamp 8.2 and analyzed with Clampfit 10 (Molecular Devices). […]
compound,measurement,setting,value
C=C(C)COc1ccccc1NC(=O)c1nc[nH]c1C [C2.2],Inhibition of currents,mean,74.03%
same,Inhibition of currents,single cells,74.8228% and 76.1135% and 70.5882% and 77.6399%
same,inhibition at 10 µM,,71%

# Reference: PMC12549899 (Nature Communications, 2025)
